Reference: patent US20090215758A1, “Use of 2,5-Disubstituted Thiazol-4-One Derivatives in Drugs” (Gruenenthal GmbH, priority 2005, published 2009)

How the values were obtained:
[1] = molecular target: T1, vanilloid receptor 1 (VR1/TRPV1) of the rat species (Rattus norvegicus, UniProt O35433); test: Functional study on vanilloid receptor 1, FLIPR Ca2+ assay in rat dorsal root ganglia cells; format: cell-based; details: for inhibition at 10 µM / activation at 10 µM / VR1 (rat) (% inhibition compared to 10 μM CP) / VR1 (rat) (% stimulation compared to 10 μM CP): test compound 10 μM; for inhibition at 10 µM / VR1 (rat) (% inhibition compared to 10 μM CP): 5 min incubation, then 100 nM capsaicin, relative to maximum inhibition with 10 μM capsaicin; for inhibition at 10 µM: read-out: VR1 (rat) (% inhibition compared to 10 μM CP); for activation at 10 µM / VR1 (rat) (% stimulation compared to 10 μM CP): Ca2+ signal relative to 10 μM capsaicin (CP); for activation at 10 µM: read-out: VR1 (rat) (% stimulation compared to 10 μM CP); for EC50: unit inferred
T1 construct: The spinal column is removed from beheaded rats; from tissue; host or cells: primary cells from rat dorsal root ganglia (DRGs)
T1 sequence (O35433 whole entry): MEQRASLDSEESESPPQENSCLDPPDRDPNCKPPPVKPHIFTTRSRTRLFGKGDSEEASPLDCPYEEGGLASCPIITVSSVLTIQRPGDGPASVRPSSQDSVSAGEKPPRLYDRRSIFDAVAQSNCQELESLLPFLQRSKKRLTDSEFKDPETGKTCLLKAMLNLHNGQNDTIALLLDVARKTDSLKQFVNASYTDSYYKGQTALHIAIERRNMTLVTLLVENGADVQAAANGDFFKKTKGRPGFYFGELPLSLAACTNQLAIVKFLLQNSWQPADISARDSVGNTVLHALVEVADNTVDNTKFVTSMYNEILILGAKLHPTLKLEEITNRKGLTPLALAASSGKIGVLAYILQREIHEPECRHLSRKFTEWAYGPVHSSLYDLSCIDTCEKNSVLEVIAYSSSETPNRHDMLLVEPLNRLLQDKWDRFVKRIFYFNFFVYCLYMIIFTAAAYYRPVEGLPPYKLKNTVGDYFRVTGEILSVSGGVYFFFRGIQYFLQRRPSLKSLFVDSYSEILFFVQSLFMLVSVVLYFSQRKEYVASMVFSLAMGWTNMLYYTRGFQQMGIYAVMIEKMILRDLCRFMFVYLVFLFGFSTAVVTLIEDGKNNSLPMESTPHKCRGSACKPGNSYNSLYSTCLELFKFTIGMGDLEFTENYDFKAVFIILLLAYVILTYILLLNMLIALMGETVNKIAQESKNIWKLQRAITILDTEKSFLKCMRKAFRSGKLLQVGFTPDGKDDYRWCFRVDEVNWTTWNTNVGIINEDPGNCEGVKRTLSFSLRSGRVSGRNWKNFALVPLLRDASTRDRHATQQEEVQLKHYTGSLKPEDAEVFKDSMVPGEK
Procedure: The agonistic or antagonistic action of the substances to be studied on the vanilloid receptor 1 (VR1/TRPV1) of the rat species can be determined with the following assay. In this assay, the Ca^2+ current through the receptor channel is quantified with the aid of a Ca^2+-sensitive dye (Fluo-4 type, Molecular Probes Europe BV, Leiden the Netherlands) in a fluorescent imaging plate reader (FLIPR, Molecular Devices, Sunnyvale, USA).
Complete medium: 50 ml HAMS F12 Nutrient Mixture (Gibco Invitrogen GmbH, Karlsruhe, Germany) with 10% by volume of FCS (fetal calf serum, Gibco Invitrogen GmbH, Karlsruhe, Germany, heat-inactivated);
2 mM L-glutamine (Sigma, Munich, Germany);
1% by weight of AA solution (antibiotic/antimycotic solution, PAA, Pasching, Austria) and 25 ng/ml of NGF medium (2.5 S, Gibco Invitrogen GmbH, Karlsruhe, Germany)
Cell culture plate: poly-D-lysine-coated, black 96-hole plates with a clear bottom (96 well black/clear plate, BD Biosciences, Heidelberg, Germany) are additionally coated with laminin (Gibco Invitrogen GmbH, Karlsruhe, Germany) by diluting laminin to a concentration of 100 μg/ml with PBS (Ca—Mg-free PBS, Gibco Invitrogen GmbH, Karlsruhe, Germany). Aliquots having a concentration of 100 μg/ml of laminin are withdrawn and stored at −20° C. The aliquots are diluted with PBS in a ratio of 1:10 to 10 μg/ml of laminin and in each case 50 μl of the solution are pipetted into a well of the cell culture plate. The cell culture plates are incubated at 37° C. for at least two hours, the supernatant solution is removed by suction and the wells are each washed twice with PBS. The coated cell culture plates are stored with supernatant PBS which is not removed until directly before the application of the cells.
The spinal column is removed from beheaded rats and placed directly into cold HBSS buffer (Hank's buffered saline solution, Gibco Invitrogen GmbH, Karlsruhe, Germany), i.e. placed in an ice bath, which has been admixed with 1% by volume of an AA solution (antibiotic/antimycotic solution, PAA, Pasching, Austria). The spinal column is severed longitudinally and removed from the spinal canal together with fasciae. Subsequently, the dorsal root ganglia (DRGs) are removed and in turn stored in cold HBSS buffer admixed with 1% by volume of an AA solution. The DRGs freed completely of blood residues and spinal nerves are in each case transferred to 500 μl of cold type 2 collagenase (PAA, Pasching, Austria) and incubated at 37° C. for 35 minutes. […] After complete incubation, the enzyme solution is cautiously pipetted off and the remaining DRGs are each suspended with 500 μl of complete medium.
The DRGs are each suspended repeatedly, drawn through cannulas No. 1, No. 12 and No. 16 by means of a syringe and transferred to 50 ml Falcon tubes which are made up to 15 ml with complete medium. The contents of each Falcon tube are in each case filtered through a 70 μm Falcon filter insert and centrifuged at 1200 revolutions and room temperature for 10 minutes. The resulting pellet is in each case taken up in 250 μl of complete medium and the cell count is determined.
The number of cells in the suspension is adjusted to 3 times 10^5 per ml and in each case 150 μl of this suspension are added to one well of the cell culture plates coated as described above.
Subsequently, the cells are laden with 2 μM Fluo-4 and 0.01% by volume of Pluronic F127 (Molecular Probes Europe BV, Leiden, the Netherlands) in HBSS buffer (Hank's buffered saline solution, Gibco Invitrogen GmbH, Karlsruhe, Germany) at 37° C. for 30 min, washed 3× with HBSS buffer and, after a further incubation of 15 minutes, used in the FLIPR assay at room temperature for Ca^2+ measurement. The Ca^2+-dependent fluorescence is measured before and after addition of substances (λex=488 nm, λem=540 nm). The quantification is effected by the measurement of the highest fluorescence intensity (FC, fluorescence counts) over the time.

[2] = molecular target: T2, VR1 (human) (Homo sapiens, UniProt Q8NER1); test: Functional study on vanilloid receptor (VR1), FLIPR Ca2+ assay in CHO K1 cells stably transfected with the VR1 gene; format: cell-based; details: for inhibition at 10 µM / activation at 10 µM: CHO-K1, test compound 10 μM; for inhibition at 10 µM / VR1 (human) (% inhibition compared to 10 μM CP): 5 min incubation, then 100 nM capsaicin, compared to 10 μM CP; for activation at 10 µM / VR1 (human) (% stimulation compared to 10 μM CP): Ca2+ signal relative to 10 μM capsaicin (CP); for activation at 10 µM: read-out: VR1 (human) (% stimulation compared to 10 μM CP); for VR1 (human) (% inhibition compared to 10 μM CP) / VR1 (human) (% stimulation compared to 10 μM CP): test compound 10 μM; for EC50: unit inferred
T2 construct: expressed in transfected cells; host or cells: CHO K1 cells (ECACC), stably transfected
T2 sequence (Q8NER1 whole entry): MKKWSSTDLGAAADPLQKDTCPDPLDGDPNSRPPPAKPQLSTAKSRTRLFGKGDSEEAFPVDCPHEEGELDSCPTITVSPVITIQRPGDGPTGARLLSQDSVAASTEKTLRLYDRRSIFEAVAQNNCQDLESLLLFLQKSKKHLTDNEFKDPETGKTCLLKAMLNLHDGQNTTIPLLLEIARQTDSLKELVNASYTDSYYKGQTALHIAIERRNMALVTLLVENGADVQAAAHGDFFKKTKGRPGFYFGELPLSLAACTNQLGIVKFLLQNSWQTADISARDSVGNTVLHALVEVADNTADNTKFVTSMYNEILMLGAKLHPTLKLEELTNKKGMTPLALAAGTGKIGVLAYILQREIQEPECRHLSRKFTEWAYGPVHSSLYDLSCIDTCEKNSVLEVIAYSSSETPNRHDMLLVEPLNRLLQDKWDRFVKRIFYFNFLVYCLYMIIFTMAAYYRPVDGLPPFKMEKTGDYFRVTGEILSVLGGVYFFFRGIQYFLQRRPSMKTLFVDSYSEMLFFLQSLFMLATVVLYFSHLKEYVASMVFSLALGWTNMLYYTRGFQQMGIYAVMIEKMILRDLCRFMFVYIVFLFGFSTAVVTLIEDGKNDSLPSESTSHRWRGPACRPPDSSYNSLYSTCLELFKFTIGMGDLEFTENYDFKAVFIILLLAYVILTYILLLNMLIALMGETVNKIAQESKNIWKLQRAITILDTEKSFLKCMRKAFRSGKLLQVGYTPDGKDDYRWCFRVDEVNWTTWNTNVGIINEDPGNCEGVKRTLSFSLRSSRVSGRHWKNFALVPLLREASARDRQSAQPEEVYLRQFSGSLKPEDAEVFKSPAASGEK
Text: The agonistic or antagonistic action of the substances to be tested on vanilloid receptor (VR1) can also be determined with the assay which follows. In this assay, the Ca^2+ current through the channel is quantified with the aid of a Ca^2+-sensitive dye (Fluo-4 type, Molecular Probes, Europe BV, Leiden, the Netherlands) in a fluorescent imaging plate reader (FLIPR, Molecular Devices, Sunnyvale, USA).
Chinese hamster ovary cells (CHO K1 cells, European Collection of Cell Cultures (ECACC) Great Britain) are transfected stably with the VR1 gene. For functional studies, these cells are plated out onto poly-D-lysine-coated black 96-well plates with a clear bottom (BD Biosciences, Heidelberg, Germany) in a density of 25 000 cells/well. The cells are incubated overnight at 37° C. and 5% CO2 in a culture medium (Ham's Nutrient Mixture F12, 10% by volume of FCS (fetal calf serum), 18 μg/ml of L-proline). The next day, the cells are incubated with Fluo-4 (Fluo-4 2 μM, Pluronic F127 0.01% by volume, Molecular Probes in HBSS (Hank's buffered saline solution), Gibco Invitrogen GmbH, Karlsruhe, Germany) at 37° C. for 30 minutes. Subsequently, the plates are washed 3 times with HBSS buffer and, after a further incubation of 15 minutes at room temperature, used for Ca^2+ measurement in FLIPR. The Ca^2+-dependent fluorescence is measured before and after addition of the substances to be studied (wavelength λex=488 nm, λem=540 nm). The quantification is effected by measuring the highest fluorescence intensity (FC, fluorescence counts) over the time.
The FLIPR protocol consists of 2 substance additions. First, the substances to be tested (10 μM) are pipetted onto the cells and the Ca current is compared with the control (capsaicin 10 μM) (% activation based on the Ca^2+ signal after addition of 10 μM capsaicin). After incubation for 5 minutes, 100 nM capsaicin is applied and the current of Ca^2+ is likewise determined.

Row | Compound | inhibition at 10 µM [1] | activation at 10 µM [1] | inhibition at 10 µM [2] | activation at 10 µM [2] | VR1 (rat) (% inhibition compared to 10 μM CP) [1] | VR1 (rat) (% stimulation compared to 10 μM CP) [1] | VR1 (human) (% inhibition compared to 10 μM CP) [2] | VR1 (human) (% stimulation compared to 10 μM CP) [2] | EC50 [1] | EC50 [2]
1 | O=C1N=C(N2CCSCC2)SC1=Cc1cccc(C(=O)N2CCN(c3nsnc3Cl)CC2)c1 [Example 115, 5-{3-[4-(4-chloro-[1,2,5]thiadiazol-3-yl)piperazine-1-carbonyl]benzylidene}-2-thiomorpholin-4-ylthiazol-4-one] | 95.8% | 128% | 66.2% | 68.2% | – | – | – | – | – | –
2 | CCN(CC)c1ccc(C=C2SC(N3CCOCC3)=NC2=O)cc1 [Example 223, 5-(4-diethylaminobenzylidene)-2-morpholin-4-ylthiazol-4-one] | 9.3% | 102% | 57.7% | 70.5% | – | – | – | – | – | –
3 | O=C1N=C(N2CCOCC2)SC1=Cc1cccc(C(F)(F)F)c1 [Example 206, 2-morpholin-4-yl-5-(3-trifluoromethylbenzylidene)thiazol-4-one] | – | – | – | – | 102.30% | 76.51% | 95.06% | 77.26% | – | –
4 | O=C1N=C(N2CCOCC2)SC1=Cc1ccc(Br)cc1 [Example 232, 5-(4-bromobenzylidene)-2-morpholin-4-ylthiazol-4-one] | 96.2% | 80.4% | 43.8% | 29.2% | – | – | – | – | – | –
5 | O=C1N=C(N2CCSCC2)SC1=Cc1cccc2ccccc12 [Example 41, 5-naphthalen-1-ylmethylene-2-thiomorpholin-4-ylthiazol-4-one] | 90.9% | 87% | 22.6% | 0.47% | – | – | – | – | 5.82 µM | 10.6 µM
6 | COc1ccc(C=C2SC(N3CCOCC3)=NC2=O)cc1 [Example 228, 5-(4-methoxybenzylidene)-2-morpholin-4-ylthiazol-4-one] | 4.84% | 16% | 0.61% | 12.2% | – | – | – | – | 14.3 µM | 26.5 µM
7 | O=C1N=C(N2CCSCC2)SC1=Cc1ccc(OC(F)(F)F)cc1 [Example 24, 2-thiomorpholin-4-yl-5-(4-trifluoromethoxybenzylidene)thiazol-4-one] | 91.3% | 110% | 61.6% | 61.3% | – | – | – | – | 11.9 µM | > 25 µM
8 | O=C1N=C(N2CCOCC2)SC1=Cc1ccc(OCc2ccccc2)cc1 [Example 21, 5-(4-benzyloxybenzylidene)-2-morpholin-4-ylthiazol-4-one] | 50.1% | 55.8% | 28.5% | 36.5% | – | – | – | – | 6.59 µM | 8.51 µM
9 | O=C1N=C(N2CCOCC2)SC1=Cc1cccc(Oc2ccccc2)c1 [Example 18, 2-morpholin-4-yl-5-(3-phenoxybenzylidene)thiazol-4-one] | 88% | 144% | 79.2% | 139% | – | – | – | – | 1.29 µM | 3.65 µM
10 | Br.O=C1N=C(N2CCSCC2)SC1=CC=Cc1ccccc1 [Example 190, 5-(3-phenylallylidene)-2-thiomorpholin-4-ylthiazol-4-one hydrobromide] | – | – | – | – | 83.13% | 51.35% | 32.35% | 34.09% | 14.3 µM | > 25 µM
11 | CN(C)c1ccc(C=C2SC(N3CCOCC3)=NC2=O)cc1 [Example 235, 5-(4-dimethylaminobenzylidene)-2-morpholin-4-ylthiazol-4-one] | 13.7% | 123% | 44.5% | 73.9% | – | – | – | – | – | –
12 | Cc1ccc(C=C2SC(N3CCN(Cc4ccccc4)CC3)=NC2=O)cc1 [Example 63, 2-(4-benzylpiperazin-1-yl)-5-(4-methylbenzylidene)thiazol-4-one] | 70.9% | 0.34% | 52.8% | 0% | – | – | – | – | – | –
13 | CC(C)(C)c1ccc(C=C2SC(N3CCOCC3)=NC2=O)cc1 [Example 197, 5-(4-tert-butylbenzylidene)-2-morpholin-4-ylthiazol-4-one] | 94.3% | – | 72.4% | 48% | – | 63.86% | – | – | – | –
14 | O=C1N=C(N2CCSCC2)SC1=Cc1cccc(C(=O)N2CCN(c3ncc(C(F)(F)F)cc3Cl)CC2)c1 [Example 113, 5-{3-[4-(3-chloro-5-trifluoromethylpyridin-2-yl)piperazine-1-carbonyl]-benzylidene}-2-thiomorpholin-4-ylthiazol-4-one] | 97.4% | 136% | 97.8% | 90.3% | – | – | – | – | – | –
15 | O=C1N=C(N2CCOCC2)SC1=Cc1cccc2ccccc12 [Example 209, 2-morpholin-4-yl-5-naphthalen-1-ylmethylenethiazol-4-one] | 34.7% | 40% | 5.47% | 9.44% | – | – | – | – | 14.8 µM | 28.4 µM
16 | COc1cc(C=C2SC(N3CCN(c4ccccc4)CC3)=NC2=O)ccc1O [Example 68, 5-(4-hydroxy-3-methoxybenzylidene)-2-(4-phenylpiperazin-1-yl)thiazol-4-one] | 11.6% | 73.4% | 39.3% | 54.3% | – | – | – | – | – | –
